Test results from US4206235A, “Novel 2,5-dihalophenyl-β-substituted sulfone fungicides” (priority 1976, dated 1980).
In brackets after ≈: the same amount, converted by molar mass.

How the values were obtained:
[1] = system: Fusarium oxysporum sp. f.lycopersici; assay: Fungitoxicity in culture media (agar), growth inhibition; type: cell-based; settings: 50% inhibition of growth, read-out: ED50 (the source's name)
Procedure: (§1) Acetone solutions of the compound were mixed with an aliquot of distilled water and the fine suspension obtained was mixed with cooled but melted agar medium and poured into Petri dishes.
(§2) The tested fungi were grown on the solidified media. Growth of the fungus was measured and percent inhibition was calculated by comparing with the appropriate acetone-water controls. Media were usually Martin's or potato-dextrose agar media.
(§3) ED50 = effective dose, sufficient for the 50% inhibition of growth of the fungus, expressed in p.p.m.

Rhizoctonia bataticola = assay: as above; type: cell-based; settings: Macrophomina phaseolina, 50% inhibition of growth, read-out: ED50 (the source's name)
Procedure: as §1, §2, §3

Rhizoctonia solani = assay: as above; type: cell-based; settings: 50% inhibition of growth, read-out: ED50 (the source's name)
Procedure: as §1, §2, §3

Rhizopus stolonifer = assay: as above; type: cell-based; settings: 50% inhibition of growth, read-out: ED50 (the source's name)
Procedure: as §1, §2, §3

Venturia inaequalis [2] = assay: Control of apple scab in greenhouse test, apple seedlings; type: in vivo; settings: Barrat & Horsfall Scale, 1 = 0%, 12 = 100% leaf scabbed, 15 days after inoculation
Pythium aphanidermatum = assay: Fungitoxicity in culture media (agar), growth inhibition; type: cell-based; settings: 50% inhibition of growth, read-out: ED50 (the source's name)
Procedure: as §1, §2, §3

Sclerotinia rolfsil = assay: as above; type: cell-based; settings: 50% inhibition of growth, read-out: ED50 (the source's name)
Procedure: as §1, §2, §3

Venturia inaequalis [3] = assay: Comparative performance of 2 compounds and 2 commercial fungicides, spray treated plants in greenhouse; type: in vivo
Penicillium funiculosum = assay: Halo test on plasticized PVC sheeting; type: cell-based; design: key to growth under the test sample (GUS): +: no reduction in growth; ±: slight reduction in growth; .-+.: moderate reduction in growth; -: complete reduction in growth
Trichoderma viride = assay: Halo test on plasticized PVC sheeting; type: cell-based; design: key to growth under the test sample (GUS): +: no reduction in growth; ±: slight reduction in growth; .-+.: moderate reduction in growth; -: complete reduction in growth
Aspergillus flavus = assay: Halo test on plasticized PVC sheeting; type: cell-based; design: key to growth under the test sample (GUS): +: no reduction in growth; ±: slight reduction in growth; .-+.: moderate reduction in growth; -: complete reduction in growth
Aspergillus niger = assay: Halo test on plasticized PVC sheeting; type: cell-based; design: key to growth under the test sample (GUS): +: no reduction in growth; ±: slight reduction in growth; .-+.: moderate reduction in growth; -: complete reduction in growth
[4] = system: Cladosporium cladosporoides; assay: Halo test on plasticized PVC sheeting; type: cell-based; design: key to growth under the test sample (GUS): +: no reduction in growth; ±: slight reduction in growth; .-+.: moderate reduction in growth; -: complete reduction in growth
Paecilomyces varioti = assay: Halo test on plasticized PVC sheeting; type: cell-based; design: key to growth under the test sample (GUS): +: no reduction in growth; ±: slight reduction in growth; .-+.: moderate reduction in growth; -: complete reduction in growth
Alternaria tenuis = assay: Halo test on plasticized PVC sheeting; type: cell-based; design: key to growth under the test sample (GUS): +: no reduction in growth; ±: slight reduction in growth; .-+.: moderate reduction in growth; -: complete reduction in growth; settings: for Zone of growth inhibition (halo): brackets = growth partially suppressed
[5] = system: mixed spore suspension of Aspergillus flavus, Aspergillus niger, Paecilomyces varioti, Penicillium funiculosum, Trichoderma viride, Alternaria tenuis …; assay: Weight Loss Test of PVC sheeting
[6] = Test No.1, inoculum 2.5 ×10^5 /ml, 50 p.p.m.
[7] = Test No.1, inoculum 2.5 ×10^5 /ml, 100 p.p.m.
[8] = Test No.1, inoculum 2.5 ×10^5 /ml, 500 p.p.m.
[9] = Test No.2, inoculum 5.0 ×10^5 /ml, 50 p.p.m.
[10] = Test No.2, inoculum 5.0 ×10^5 /ml, 100 p.p.m.
[11] = Test No.2, inoculum 5.0 ×10^5 /ml, 500 p.p.m.
[12] = 0.5% in PVC sheeting, brackets = growth partially suppressed

## O=S(=O)(CC(Cl)Cl)c1cc(Br)ccc1Br [Example 7, 2,5-dibromophenyl-β,β'-dichloroethyl sulfone]
[1]
  IC50: 50 µg/mL (≈ 126 µM)
Rhizoctonia bataticola
  IC50: 20 µg/mL (≈ 50.4 µM)
Rhizoctonia solani
  IC50: 5 µg/mL (≈ 12.6 µM)
Rhizopus stolonifer
  IC50: 50 µg/mL (≈ 126 µM)
Venturia inaequalis [2]; 50 p.p.m.
  Mean disease severity: 5.7
Venturia inaequalis [2]; 100 p.p.m.
  Mean disease severity: 5.3
Venturia inaequalis [2]; 500 p.p.m.
  Mean disease severity: 5.0

## O=S(=O)(CC(Cl)Br)c1cc(Cl)ccc1Cl (stereo not drawn) [Example 6, 2,5-dichlorophenyl-β-chloro-β-bromoethyl sulfone]
[1]
  IC50: > 50 µg/mL
Rhizoctonia bataticola
  IC50: 20 µg/mL (≈ 56.7 µM)
Rhizoctonia solani
  IC50: 10 µg/mL (≈ 28.4 µM)
Venturia inaequalis [2]; 50 p.p.m.
  Mean disease severity: 4.0
Venturia inaequalis [2]; 100 p.p.m.
  Mean disease severity: 1.0
Venturia inaequalis [2]; 500 p.p.m.
  Mean disease severity: 1.0

## O=S(=O)(CC(Cl)c1ccccc1)c1cc(Cl)ccc1Cl (stereo not drawn) [Example 5, 2,5-dichlorophenyl-β-chloro-β-phenylethyl sulfone]
[1]
  IC50: > 50 µg/mL
Rhizoctonia bataticola
  IC50: 50 µg/mL (≈ 143 µM)
Rhizoctonia solani
  IC50: 20 µg/mL (≈ 57.2 µM)
Venturia inaequalis [2]; 50 p.p.m.
  Mean disease severity: 6.0
Venturia inaequalis [2]; 100 p.p.m.
  Mean disease severity: 2.3
Venturia inaequalis [2]; 500 p.p.m.
  Mean disease severity: 3.5

## O=S(=O)(CC(Cl)Cl)c1cc(Cl)ccc1Cl [Example 1, 2,5-dichlorophenyl-β,β'-dichloroethyl sulfone]
[1]
  IC50: 50 µg/mL (≈ 162 µM)
Pythium aphanidermatum
  IC50: 10 µg/mL (≈ 32.5 µM)
Rhizoctonia bataticola
  IC50: 5 µg/mL (≈ 16.2 µM)
Rhizoctonia solani
  IC50: 5 µg/mL (≈ 16.2 µM)
Rhizopus stolonifer
  IC50: 50 µg/mL (≈ 162 µM)
Sclerotinia rolfsil
  IC50: 10 µg/mL (≈ 32.5 µM)
Venturia inaequalis [2]; 50 p.p.m.
  Mean disease severity: 3.5
Venturia inaequalis [2]; 100 p.p.m.
  Mean disease severity: 3.0
Venturia inaequalis [2]; 500 p.p.m.
  Mean disease severity: 1.0
Venturia inaequalis [3]; [6]
  Disease control: 63.6%
Venturia inaequalis [3]; [7]
  Disease control: 97.4%
Venturia inaequalis [3]; [8]
  Disease control: 100%
Venturia inaequalis [3]; [9]
  Disease control: 98.2%
Venturia inaequalis [3]; [10]
  Disease control: 99.5%
Venturia inaequalis [3]; [11]
  Disease control: 100%
Penicillium funiculosum; 0.5% in PVC sheeting
  growth under the test sample (GUS): +
Penicillium funiculosum; 1% in PVC sheeting
  Zone of growth inhibition (halo): 2.5 millimetres
  growth under the test sample (GUS): .-+.
Trichoderma viride; 0.5% in PVC sheeting
  Zone of growth inhibition (halo): 0 millimetres
  growth under the test sample (GUS): +
Trichoderma viride; 1% in PVC sheeting
  Zone of growth inhibition (halo): 0 millimetres
  growth under the test sample (GUS): +
Aspergillus flavus; 0.5% in PVC sheeting
  Zone of growth inhibition (halo): 0 millimetres
  growth under the test sample (GUS): .-+.
Aspergillus flavus; 1% in PVC sheeting
  Zone of growth inhibition (halo): 0 millimetres
  growth under the test sample (GUS): .-+.
Aspergillus niger; 0.5% in PVC sheeting
  growth under the test sample (GUS): .-+.
Aspergillus niger; 1% in PVC sheeting
  Zone of growth inhibition (halo): 6 millimetres
  growth under the test sample (GUS): -
[4]; 0.5% in PVC sheeting
  growth under the test sample (GUS): -
[4]; [12]
  Zone of growth inhibition (halo): 5 millimetres
[4]; 1% in PVC sheeting
  Zone of growth inhibition (halo): 12 millimetres
  growth under the test sample (GUS): -
Paecilomyces varioti; 0.5% in PVC sheeting
  Zone of growth inhibition (halo): 0 millimetres
  growth under the test sample (GUS): +
Paecilomyces varioti; 1% in PVC sheeting
  Zone of growth inhibition (halo): 15 millimetres
  growth under the test sample (GUS): -
Alternaria tenuis; 0.5% in PVC sheeting
  growth under the test sample (GUS): -
  Zone of growth inhibition (halo): 11 millimetres
Alternaria tenuis; 1% in PVC sheeting
  growth under the test sample (GUS): -
  Zone of growth inhibition (halo): 17 millimetres

## [Cl][Hg][Cl] [mercuric chloride, reference compound]
[5]
  changes in weight (in words): only negligible changes in weight

## O=S(=O)(CC(Cl)(Cl)Cl)c1cc(Br)ccc1Br [Example 8, 2,5-dibromophenyl-β,β',β"-trichloroethyl sulfone]
Venturia inaequalis [2]; 50 p.p.m.
  Mean disease severity: 6.0
Venturia inaequalis [2]; 100 p.p.m.
  Mean disease severity: 2.0
Venturia inaequalis [2]; 500 p.p.m.
  Mean disease severity: 1.3
Venturia inaequalis [3]; [6]
  Disease control: 86.4%
Venturia inaequalis [3]; [7]
  Disease control: 97.4%
Venturia inaequalis [3]; [8]
  Disease control: 100%
Venturia inaequalis [3]; [9]
  Disease control: 99.9%
Venturia inaequalis [3]; [10]
  Disease control: 100%
Venturia inaequalis [3]; [11]
  Disease control: 99.9%

## O=S(=O)(CC(Cl)(Cl)Cl)c1cc(Cl)ccc1Cl [Example 2, 2,5-dichlorophenyl,β,β',β"-trichloroethyl sulfone]
[1]
  IC50: 50 µg/mL (≈ 146 µM)
Pythium aphanidermatum
  IC50: 5 µg/mL (≈ 14.6 µM)
Rhizoctonia bataticola
  IC50: 10 µg/mL (≈ 29.2 µM)
Rhizoctonia solani
  IC50: 10 µg/mL (≈ 29.2 µM)
Sclerotinia rolfsil
  IC50: 10 µg/mL (≈ 29.2 µM)
Venturia inaequalis [2]; 50 p.p.m.
  Mean disease severity: 5.0
Venturia inaequalis [2]; 100 p.p.m.
  Mean disease severity: 2.9
Venturia inaequalis [2]; 500 p.p.m.
  Mean disease severity: 1.3
Penicillium funiculosum; 0.5% in PVC sheeting
  growth under the test sample (GUS): +
Penicillium funiculosum; [12]
  Zone of growth inhibition (halo): 0 millimetres
Penicillium funiculosum; 1% in PVC sheeting
  Zone of growth inhibition (halo): 0 millimetres
  growth under the test sample (GUS): +
Trichoderma viride; 0.5% in PVC sheeting
  Zone of growth inhibition (halo): 0 millimetres
  growth under the test sample (GUS): +
Trichoderma viride; 1% in PVC sheeting
  Zone of growth inhibition (halo): 0 millimetres
  growth under the test sample (GUS): +
Aspergillus flavus; 0.5% in PVC sheeting
  Zone of growth inhibition (halo): 0 millimetres
  growth under the test sample (GUS): +
Aspergillus flavus; 1% in PVC sheeting
  Zone of growth inhibition (halo): 0 millimetres
  growth under the test sample (GUS): +
Aspergillus niger; 0.5% in PVC sheeting
  growth under the test sample (GUS): +
Aspergillus niger; [12]
  Zone of growth inhibition (halo): 0 millimetres
Aspergillus niger; 1% in PVC sheeting
  Zone of growth inhibition (halo): 0 millimetres
  growth under the test sample (GUS): +
[4]; 0.5% in PVC sheeting
  growth under the test sample (GUS): .-+.
[4]; 1% in PVC sheeting
  Zone of growth inhibition (halo): 8 millimetres
  growth under the test sample (GUS): -
Paecilomyces varioti; 0.5% in PVC sheeting
  Zone of growth inhibition (halo): 0 millimetres
  growth under the test sample (GUS): +
Paecilomyces varioti; 1% in PVC sheeting
  Zone of growth inhibition (halo): 0 millimetres
  growth under the test sample (GUS): +
Alternaria tenuis; 0.5% in PVC sheeting
  growth under the test sample (GUS): .-+.
Alternaria tenuis; 1% in PVC sheeting
  growth under the test sample (GUS): -
